Test results as given in paper PMC12562379, “Facile Synthesis of N-vinylindoles via Knoevenagel Condensation: Molecular Features and Biological Activities” (International Journal of Molecular Sciences, 2025).
In brackets after ≈: the same amount, converted by molar mass. Counter-ions that a name gives are not always drawn. Like-named read-outs stand apart in the source and are kept apart here.

Key:
S. aureus ATCC 6535 = assay: Microbroth dilution assay; format: cell-based; conditions: Staphylococcus aureus, ATCC6535
E. coli ATCC 8739 = assay: Microbroth dilution assay; format: cell-based; conditions: Escherichia coli, ATCC8739
Protocol: (§1) The minimum inhibitory concentration (MIC) and minimum bactericidal/fungicidal concentration (MBC/MFC) of the tested compounds were determined by the microbroth dilution technique using 96-well plates based on the methodology described in the EUCAST (European Committee on Antimicrobial Susceptibility Testing) standards. Reference and clinical strains of Gram-positive (Staphylococcus aureus ATCC 6538, Staphylococuccus aureus MRSA 6347) and Gram-negative (Escherichia coli ATCC 8739) bacteria, and yeast (Candida albicans ATCC 10231, Candida glabrata ATCC 2001) were used for the assay. The studies were carried out in the Mueller–Hinton (MH) broth for bacteria and RPMI 1640 broth + MOPS (Sigma-Aldrich, Poland) buffer in the case of yeast. The dry test samples were dissolved in DMSO (dimethyl sulfoxide), resulting in a final concentration of 15 mg/mL, and then diluted in a geometric progression. Ampicillin (Sigma-Aldrich, Poland) acted as a control sample (512 to 4 µg/mL) for bacteria and ketoconazole (128 to 1 µg/mL) (Sigma-Aldrich, Poland) acted as a control sample for yeast. The cultures of microorganisms were prepared by transferring cells from the stock cultures to tubes with the appropriate broth and incubated with agitation in an aerobic atmosphere for 18 ± 2 h at 35 ± 1 °C; next, they were diluted to achieve an optical density corresponding to 5 × 105 (bacteria) or 2 × 105 (yeast) colony-forming units per mL (cfu/mL). An appropriate media (96 µL), along with the tested compounds with a final concentration range of 300–3.1 µg/mL (4 µL) and next microbial suspension (100 µL) were added to each well. Plates with samples were incubated in adequate conditions described above and microbial growth was assessed. […] (>90%; ketoconazole) but 50% (for other compounds) inhibits visible growth of yeasts. Next, as a control of microbial viability, 100 µL of the samples from each well without growth was inoculated on the MH or RPMI agar plates and incubated for 18 ± 2 h at 35 ± 1 °C and finally, the CFU was counted. The MBC/MFC was determined as the minimum concentration of compounds required to kill 99.9% the organisms.

S. aureus MRSA 12673 = assay: Microbroth dilution assay; format: cell-based; conditions: Staphylococcus aureus
HaCaT = assay: MTT assay, cytotoxic activity on non-cancerous keratinocytes; format: cell-based; conditions: Homo sapiens, 24 h, n = 12
Protocol: (§2) The human ovarian SKOV-3, gastric adenocarcinoma AGS, cervical HeLa cell lines and non-cancerous keratinocytes HaCaT were obtained from the American Type Culture Collection (ATCC, Manassas, VA, USA). The cell lines were cultured in McCoy’s Medium, Dulbecco’s Modified Eagle’s Medium/F12, and DMEM, respectively (Merck Millipore, Burlington, MA, USA). Penicillin (100 units/mL), streptomycin ([…]), and 10% (v/v) fetal bovine serum (FBS) were added to all the media. The cells were incubated at 37 °C and 5% CO2.
(§3) To estimate the cytotoxic activity of the obtained compounds 2a-i, MTT assay was used. The cells (5 × 10^3 cells/well) were treated with the compounds in a range of concentrations 1–150 µg/mL. […] After 24 h, MTT solution (0.5 mg/mL) was added to the cells. Formazan crystals were dissolved in DMSO and the absorbance was measured with a microtiter plate reader (Epoch, BioTek Instruments, Winooski, VT, USA).

C. glabrata ATCC 2001 = assay: Microbroth dilution assay; format: cell-based, Candida glabrata; conditions: Nakaseomyces glabratus, ATCC2001
Protocol: as §1

C. albicans ATCC 10231 = assay: Microbroth dilution assay; format: cell-based, Candida albicans; conditions: Candida albicans, ATCC10231, C. albicans ATCC 10231; for MFC: read-out: MFC; for MIC: read-out: MIC
Protocol: as §1

AGS = assay: MTT assay, cytotoxic activity; format: cell-based, human; conditions: 24 h, n = 12; for IC50: Homo sapiens
Protocol: as §2, §3

SKOV-3 = assay: MTT assay, cytotoxic activity; format: cell-based, human; conditions: SKOV-3, MTT, 24 h, n = 12; for IC50: Homo sapiens, SK-OV-3
Protocol: as §2, §3

HeLa = assay: MTT assay, cytotoxic activity; format: cell-based, human; conditions: 24 h, n = 12; for IC50: Homo sapiens
Protocol: as §2, §3

[1] = target: T1, AGE2-BSA/sRAGE interaction (Homo sapiens, UniProt Q15109); assay: ELISA AGE2-BSA/sRAGE inhibitory screening; format: binding; conditions: for Inhibition (%) of AGE2-BSA/sRAGE interaction: 100 µM
T1 construct: purchased Creative BioMart
T1 sequence (Q15109 23-342 limits assumed): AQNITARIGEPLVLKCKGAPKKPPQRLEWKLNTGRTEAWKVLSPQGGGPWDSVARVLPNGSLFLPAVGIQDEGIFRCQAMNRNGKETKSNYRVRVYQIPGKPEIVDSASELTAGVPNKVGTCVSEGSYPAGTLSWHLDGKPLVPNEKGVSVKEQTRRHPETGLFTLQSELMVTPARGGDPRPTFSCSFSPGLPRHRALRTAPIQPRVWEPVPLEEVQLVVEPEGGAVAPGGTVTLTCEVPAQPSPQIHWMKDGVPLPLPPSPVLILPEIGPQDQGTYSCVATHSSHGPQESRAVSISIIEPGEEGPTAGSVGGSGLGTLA
Protocol: The in vitro inhibitor screening of AGE2 (glyceraldehyde-modified AGE)-sRAGE interaction (soluble RAGE) was performed using a 96-well AGE-BSA-coated plate (Creative BioMart® ELISA kit, Shirley, NY, USA), according to the manufacturer’s instructions. 100 UA/mL soluble RAGE (sRAGE) was incubated with 100 μM of the tested compounds or 0.05% DMSO as a negative control on an AGE2-BSA-coated plate at room temperature for 60 min, shaking at 300 rpm on an orbital microplate shaker. After incubation, the wells were washed 4 times with wash buffer and horseradish peroxidase (HRP)-labeled anti-RAGE antibody was added and the plate was further incubated at room temperature for 60 min, shaking at 300 rpm on an orbital microplate shaker. After incubation, the wells were washed 4 times with wash buffer and the Substrate Reagent was added to each well. After an incubation at room temperature for 5 min, the HRP-labeled antibody sRAGE-AGE complex was then detected by measuring the absorbance at 450 nm using the microplate reader Varioskan (Thermo Fischer Scientific). These experiments were repeated two times.

[2] = system: HeLa, SKOV-3, AGS (and HaCaT) cell lines; assay: MTT assay, ranges stated over several cell lines; format: cell-based, human; conditions: for IC50: Homo sapiens
Protocol: as §2, §3

[3] = system: S. aureus ATCC 6535, S. aureus MRSA 12673 and other tested bacterial and yeast strains; assay: Microbroth dilution assay, ranges stated over several strains; format: cell-based; conditions: all tested microorganisms
[4] = E. coli ATCC 8739, read-out: MIC
[5] = S. aureus MRSA 12673, read-out: MIC
[6] = range over the cancer cell lines HeLa, SKOV-3 and AGS
[7] = range over HeLa and SKOV-3 cell lines

SMILES	MBC (S. aureus ATCC 6535) [µg/mL]	MIC (S. aureus ATCC 6535) [µg/mL]	MBC (E. coli ATCC 8739; E. coli ATCC 8739) [µg/mL]	MBC (S. aureus MRSA 12673; S. aureus MRSA 12673) [µg/mL]	IC50 (HaCaT) [µg/mL]	MFC (C. glabrata ATCC 2001) [µg/mL]	MIC (C. glabrata ATCC 2001) [µg/mL]	MFC (C. albicans ATCC 10231) [µg/mL]	MIC (C. albicans ATCC 10231) [µg/mL]	IC50 (AGS) [µg/mL]	IC50 (SKOV-3) [µg/mL]	IC50 (HeLa) [µg/mL]	MIC (E. coli ATCC 8739; [4]) [µg/mL]	MIC (S. aureus MRSA 12673; [5]) [µg/mL]	IC50 [2, 6] [µg/mL]	inhibition at 100 µM [1] [%]	other results
CC1(C)S[C@@H]2[C@H](NC(=O)[C@H](N)c3ccccc3)C(=O)N2[C@H]1C(=O)O [Ampicillin, reference compound]	8 (≈ 22.9 µM)	8 (≈ 22.9 µM)	128 (≈ 366 µM)	512 (≈ 1470 µM)													MIC (E. coli ATCC 8739): 128 µg/mL (≈ 366 µM); MIC (S. aureus MRSA 12673; MRSA): 512 µg/mL (≈ 1470 µM)
C(=C(\C1=NCCN1)n1ccc2ccccc21)/c1ccccc1 [Compound 2a, (Z)-1-[1-(4,5-dihydro-1H-imidazol-2-yl)-2-(phenyl)vinyl]-1H-indole]	220 (≈ 766 µM)	110 (≈ 383 µM)	220 (≈ 766 µM)	> 220	11.7 ± 1.31 (≈ 40.7 µM)	> 220	> 220	> 220	> 220	17.2 ± 0.68 (≈ 60 µM)	9.81 ± 0.45 (≈ 34.1 µM)	8.96 ± 0.33 (≈ 31.2 µM)	220 (≈ 766 µM)	220 (≈ 766 µM)			
Cc1ccc(/C=C(/C2=NCCN2)n2ccc3ccccc32)cc1 [Compound 2b, (Z)-1-[1-(4,5-dihydro-1H-imidazol-2-yl)-2-(p-tolyl)vinyl]-1H-indole]	110 (≈ 365 µM)	55 (≈ 182 µM)	> 220	> 220	12.1 ± 0.55 (≈ 40.1 µM)	> 220	220 (≈ 730 µM)	> 220	220 (≈ 730 µM)	16.2 ± 1.2 (≈ 53.8 µM)	9.69 ± 0.62 (≈ 32.2 µM)	8.19 ± 0.4 (≈ 27.2 µM)	220 (≈ 730 µM)	220 (≈ 730 µM)	8.19 to 16.2 (≈ 27.2 to 53.8 µM)		Inhibition (%) of AGE2-BSA/sRAGE interaction [1]: devoid of activity and lack
COc1ccc(/C=C(/C2=NCCN2)n2ccc3ccccc32)cc1 [Compound 2c, (Z)-1-[1-(4,5-dihydro-1H-imidazol-2-yl)-2-(4-methoxyphenyl)vinyl]-1H-indole]	110 (≈ 347 µM)	110 (≈ 347 µM)	> 220	> 220	9.11 ± 1.58 (≈ 28.7 µM)	> 220	> 220	> 220	> 220	10.29 ± 0.08 (≈ 32.4 µM)	8.8 ± 0.46 (≈ 27.7 µM)	7.86 ± 0.59 (≈ 24.8 µM)	220 (≈ 693 µM)	> 220			
Fc1ccc(/C=C(/C2=NCCN2)n2ccc3ccccc32)cc1 [Compound 2d, (Z)-1-[1-(4,5-dihydro-1H-imidazol-2-yl)-2-(4-fluorophenyl)vinyl]-1H-indole]	240 (≈ 786 µM)	120 (≈ 393 µM)	> 240	> 240	7.37 ± 0.28 (≈ 24.1 µM)	> 240	> 240	> 240	> 240	15.5 ± 0.72 (≈ 50.7 µM)	10.2 ± 0.45 (≈ 33.6 µM)	8.65 ± 0.68 (≈ 28.3 µM)	240 (≈ 786 µM)	120 (≈ 393 µM)	8.65 to 15.5 (≈ 28.3 to 50.7 µM)	12	
Clc1ccc(/C=C(/C2=NCCN2)n2ccc3ccccc32)cc1 [Compound 2e, (Z)-1-[2-(4-chlorophenyl)-1-(4,5-dihydro-1H-imidazol-2-yl)vinyl]-1H-indole]	60 (≈ 186 µM)	30 (≈ 93.2 µM)	240 (≈ 746 µM)	240 (≈ 746 µM)	3.43 ± 0.05 (≈ 10.7 µM)	240 (≈ 746 µM)	240 (≈ 746 µM)	240 (≈ 746 µM)	120 (≈ 373 µM)	11.4 ± 0.74 (≈ 35.3 µM)	4.4 ± 0.16 (≈ 13.7 µM)	3.13 ± 0.3 (≈ 9.73 µM)	120 (≈ 373 µM)	60 (≈ 186 µM)		34.7	IC50 [2, 7]: 3.13 to 4.4 µg/mL (≈ 9.73 to 13.7 µM)
Brc1ccc(/C=C(/C2=NCCN2)n2ccc3ccccc32)cc1 [Compound 2f, (Z)-1-[2-(4-bromophenyl)-1-(4,5-dihydro-1H-imidazol-2-yl)vinyl]-1H-indole]	55 (≈ 150 µM)	27.5 (≈ 75.1 µM)	110 (≈ 300 µM)	110 (≈ 300 µM)	3.13 ± 0.09 (≈ 8.55 µM)	220 (≈ 601 µM)	220 (≈ 601 µM)	110 (≈ 300 µM)	110 (≈ 300 µM)	11.1 ± 1.24 (≈ 30.4 µM)	2.76 ± 0.18 (≈ 7.54 µM)	2.37 ± 0.15 (≈ 6.47 µM)	110 (≈ 300 µM)	55 (≈ 150 µM)	2.37 to 11.1 (≈ 6.47 to 30.4 µM)	46.6	IC50 [2, 7]: 2.37 to 2.76 µg/mL (≈ 6.47 to 7.54 µM)
O=[N+]([O-])c1ccc(/C=C(/C2=NCCN2)n2ccc3ccccc32)cc1 [Compound 2g, (Z)-1-[1-(4,5-dihydro-1H-imidazol-2-yl)-2-(4-nitrophenyl)vinyl]-1H-indole]	110 (≈ 331 µM)	55 (≈ 165 µM)	> 220	> 220	9.15 ± 0.74 (≈ 27.5 µM)	> 220	> 220	> 220	> 220	10.14 ± 0.08 (≈ 30.5 µM)	7.06 ± 0.62 (≈ 21.2 µM)	5.6 ± 0.57 (≈ 16.8 µM)	220 (≈ 662 µM)	110 (≈ 331 µM)			IC50 [2, 7]: 5.6 to 7.06 µg/mL (≈ 16.8 to 21.2 µM)
C(=C(\C1=NCCN1)n1ccc2ccccc21)/c1cccc2ccccc12 [Compound 2h, (Z)-1-[1-(4,5-dihydro-1H-imidazol-2-yl)-2-(naphthalen-1-yl)vinyl]-1H-indole]	240 (≈ 711 µM)	120 (≈ 356 µM)	> 240	240 (≈ 711 µM)	17.9 ± 1.93 (≈ 53.2 µM)	240 (≈ 711 µM)	240 (≈ 711 µM)	> 240	> 240	18.9 ± 1.81 (≈ 56 µM)	10.39 ± 0.1 (≈ 30.8 µM)	10.1 ± 1.12 (≈ 29.9 µM)	> 240	120 (≈ 356 µM)	10.1 to 18.9 (≈ 29.9 to 56 µM)	36.4	Inhibition (%) of AGE2-BSA/sRAGE interaction [1]: 36.3%; MBC/MFC [3]: ≥ 240 µg/mL
CC(=O)N1CCN(c2ccc(OCC3COC(Cn4ccnc4)(c4ccc(Cl)cc4Cl)O3)cc2)CC1 (stereo not shown) [Ketoconazole, reference compound]						128 (≈ 241 µM)	64 (≈ 120 µM)	> 128	> 128								
O=C1[O][Pt]2([NH][C@@H]3CCCC[C@H]3[NH]2)[O]C1=O [Oxaliplatin, reference compound]																	IC50 (range over cell lines) [2, 7]: 35.76 to 102.16 µg/mL; IC50 ± SD (AGS): 17.90 ± 1.20 µg/mL; IC50 ± SD (SKOV-3): 102.16 ± 9.26 µg/mL; IC50 ± SD (HeLa): 35.76 ± 1.72 µg/mL
CC[C@]1(O)C[C@@H]2CN(CCc3c([nH]c4ccccc34)[C@@](C(=O)OC)(c3cc4c(cc3OC)N(C)[C@H]3[C@@](O)(C(=O)OC)[C@H](OC(C)=O)[C@]5(CC)C=CCN6CC[C@]43[C@@H]65)C2)C1 [Vinblastine sulfate, reference compound]											0.008 ± 0.0003	0.005 ± 0.0004					
